Assay results published in ChEMBL document CHEMBL1201862, “PubChem BioAssay data set” (2004).
Calls of active or inactive are those of the source.

Experiments:
[1] = biological target: Delta-type opioid receptor (Homo sapiens, UniProt P41143); assay: SAR Analysis of Antagonists of the DOR Receptor using an Image-Based Assay - Set 2. [Related pubchem assays (depositor defined):AID1777, AID1785, AID1786, AID1966, AID2133, AID2136, AID2284, AID2285, AID2357]; format: functional
[2] = biological target: T1, Kappa-type opioid receptor (Homo sapiens, UniProt P41145); assay: SAR analysis of small molecule agonists of the kappa opioid receptor via a luminescent beta-arrestin assay - Set 2. [Related pubchem assays (depositor defined):AID1777, AID1785, AID1786, AID1966, AID2133, AID2136, AID2284, AID449737]; format: functional
T1 sequence (P41145 whole entry): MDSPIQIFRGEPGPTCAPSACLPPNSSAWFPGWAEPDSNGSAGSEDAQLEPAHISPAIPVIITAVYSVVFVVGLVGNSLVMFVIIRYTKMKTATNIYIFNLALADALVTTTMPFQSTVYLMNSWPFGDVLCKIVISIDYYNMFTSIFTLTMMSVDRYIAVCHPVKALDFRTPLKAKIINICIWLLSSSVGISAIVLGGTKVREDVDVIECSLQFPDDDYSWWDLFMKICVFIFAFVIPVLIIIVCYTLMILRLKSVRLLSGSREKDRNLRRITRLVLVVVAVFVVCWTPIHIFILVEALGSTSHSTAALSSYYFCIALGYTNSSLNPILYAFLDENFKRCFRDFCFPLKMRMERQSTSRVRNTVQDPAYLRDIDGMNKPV

[3] = biological target: T1, Kappa-type opioid receptor; assay: SAR analysis of Antagonists of the Kappa Opioid Receptor (KOR) using an Image-Based Assay - Set 2. [Related pubchem assays (depositor defined):AID1777, AID1785, AID1786, AID1966, AID2133, AID2136, AID2284, AID2285, AID2348]; format: functional
[4] = biological target: DNA dC->dU-editing enzyme APOBEC-3G (Homo sapiens, UniProt Q9HC16); assay: Dose Response confirmation of small molecule APOBEC3G DNA Deaminase Inhibitors via a fluorescence-based single-stranded DNA deaminase assay. [Related pubchem assays (depositor defined):AID493012, AID493028]; format: functional
Sequence of DNA dC->dU-editing enzyme APOBEC-3G (Q9HC16 whole entry): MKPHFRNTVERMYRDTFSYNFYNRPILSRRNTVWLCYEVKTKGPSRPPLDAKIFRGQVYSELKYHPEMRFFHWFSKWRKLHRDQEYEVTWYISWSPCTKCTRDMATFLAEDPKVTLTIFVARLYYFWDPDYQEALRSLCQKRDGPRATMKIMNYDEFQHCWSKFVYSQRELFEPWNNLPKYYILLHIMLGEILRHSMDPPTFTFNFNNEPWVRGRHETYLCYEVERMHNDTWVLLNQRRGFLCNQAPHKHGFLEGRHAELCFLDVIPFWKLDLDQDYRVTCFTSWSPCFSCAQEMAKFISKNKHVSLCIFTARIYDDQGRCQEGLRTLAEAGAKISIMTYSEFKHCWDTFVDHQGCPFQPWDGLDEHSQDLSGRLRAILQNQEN

[5] = biological target: DNA dC->dU-editing enzyme APOBEC-3A (Homo sapiens, UniProt P31941); assay: A3A deaminase inhibition for selectivity – biochemical, dose response (AID 504722); format: functional
Sequence of DNA dC->dU-editing enzyme APOBEC-3A (P31941 whole entry): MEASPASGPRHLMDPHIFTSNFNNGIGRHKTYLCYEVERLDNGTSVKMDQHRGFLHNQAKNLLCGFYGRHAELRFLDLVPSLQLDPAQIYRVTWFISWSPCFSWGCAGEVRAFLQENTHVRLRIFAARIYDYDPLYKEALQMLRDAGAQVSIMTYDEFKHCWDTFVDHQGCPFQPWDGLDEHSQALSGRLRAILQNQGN

Leucine aminopeptidase = biological target: T2, Leucine aminopeptidase (Plasmodium falciparum 3D7, UniProt Q8IL11); assay: P. falciparum M17LAP inhibitors, primary screen, biochemical, fluorogenic H-Leu-NHMec substrate, 1536-well (AID 1619); format: functional
T2 sequence (Q8IL11 whole entry): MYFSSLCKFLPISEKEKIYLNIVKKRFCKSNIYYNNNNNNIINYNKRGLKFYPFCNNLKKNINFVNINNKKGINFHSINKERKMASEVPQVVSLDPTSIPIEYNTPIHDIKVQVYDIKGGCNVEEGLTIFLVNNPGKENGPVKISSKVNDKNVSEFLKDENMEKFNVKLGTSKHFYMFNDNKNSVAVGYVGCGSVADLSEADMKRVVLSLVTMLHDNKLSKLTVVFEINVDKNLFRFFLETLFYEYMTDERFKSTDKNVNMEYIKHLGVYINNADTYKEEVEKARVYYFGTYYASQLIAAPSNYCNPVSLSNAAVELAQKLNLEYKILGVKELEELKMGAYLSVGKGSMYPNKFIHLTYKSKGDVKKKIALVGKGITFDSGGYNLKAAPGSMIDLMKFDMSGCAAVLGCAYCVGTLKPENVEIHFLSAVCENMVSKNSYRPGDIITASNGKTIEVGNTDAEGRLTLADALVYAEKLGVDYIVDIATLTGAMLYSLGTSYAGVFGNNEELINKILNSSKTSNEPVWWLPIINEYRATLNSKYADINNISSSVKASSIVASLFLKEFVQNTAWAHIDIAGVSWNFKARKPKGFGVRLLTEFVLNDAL

[6] = biological target: T3, Rac GTPase-activating protein 1 (Homo sapiens, UniProt Q9H0H5); assay: blockers of MgcRacGAP-driven Rac1 GTP hydrolysis – biochemical, ADP Hunter fluorescence, primary and confirmatory, confirmation (AID 624330); format: functional
T3 sequence (Q9H0H5 whole entry): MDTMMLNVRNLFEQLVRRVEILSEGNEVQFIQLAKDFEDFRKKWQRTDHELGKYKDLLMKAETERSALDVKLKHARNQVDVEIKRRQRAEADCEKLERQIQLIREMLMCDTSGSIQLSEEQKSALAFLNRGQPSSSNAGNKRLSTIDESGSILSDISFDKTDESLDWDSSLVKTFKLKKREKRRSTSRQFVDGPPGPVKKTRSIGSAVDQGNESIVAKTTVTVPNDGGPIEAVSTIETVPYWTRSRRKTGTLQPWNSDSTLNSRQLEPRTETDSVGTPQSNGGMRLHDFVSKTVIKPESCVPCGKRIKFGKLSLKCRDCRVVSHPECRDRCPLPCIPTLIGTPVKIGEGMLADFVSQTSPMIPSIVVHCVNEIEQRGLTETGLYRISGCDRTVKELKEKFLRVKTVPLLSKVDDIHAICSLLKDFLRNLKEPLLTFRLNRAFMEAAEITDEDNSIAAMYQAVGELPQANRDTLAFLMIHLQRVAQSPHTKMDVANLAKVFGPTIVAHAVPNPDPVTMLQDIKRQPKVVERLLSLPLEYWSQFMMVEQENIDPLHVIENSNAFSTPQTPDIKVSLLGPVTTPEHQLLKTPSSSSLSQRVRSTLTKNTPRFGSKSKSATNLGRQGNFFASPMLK

[7] = biological target: Cystic fibrosis transmembrane conductance regulator/Golgi-associated PDZ and coiled-coil motif-containing protein (Homo sapiens, UniProt P13569+Q9HD26); assay: potency against CAL PDZ-peptide interaction – biochemical, fluorescence polarization, Cerulean-tagged CAL PDZ, cherry-picks, dose response (AID 504773)
Sequence of Cystic fibrosis transmembrane conductance regulator/Golgi-associated PDZ and coiled-coil motif-containing protein (P13569 whole entry, other chains not shown): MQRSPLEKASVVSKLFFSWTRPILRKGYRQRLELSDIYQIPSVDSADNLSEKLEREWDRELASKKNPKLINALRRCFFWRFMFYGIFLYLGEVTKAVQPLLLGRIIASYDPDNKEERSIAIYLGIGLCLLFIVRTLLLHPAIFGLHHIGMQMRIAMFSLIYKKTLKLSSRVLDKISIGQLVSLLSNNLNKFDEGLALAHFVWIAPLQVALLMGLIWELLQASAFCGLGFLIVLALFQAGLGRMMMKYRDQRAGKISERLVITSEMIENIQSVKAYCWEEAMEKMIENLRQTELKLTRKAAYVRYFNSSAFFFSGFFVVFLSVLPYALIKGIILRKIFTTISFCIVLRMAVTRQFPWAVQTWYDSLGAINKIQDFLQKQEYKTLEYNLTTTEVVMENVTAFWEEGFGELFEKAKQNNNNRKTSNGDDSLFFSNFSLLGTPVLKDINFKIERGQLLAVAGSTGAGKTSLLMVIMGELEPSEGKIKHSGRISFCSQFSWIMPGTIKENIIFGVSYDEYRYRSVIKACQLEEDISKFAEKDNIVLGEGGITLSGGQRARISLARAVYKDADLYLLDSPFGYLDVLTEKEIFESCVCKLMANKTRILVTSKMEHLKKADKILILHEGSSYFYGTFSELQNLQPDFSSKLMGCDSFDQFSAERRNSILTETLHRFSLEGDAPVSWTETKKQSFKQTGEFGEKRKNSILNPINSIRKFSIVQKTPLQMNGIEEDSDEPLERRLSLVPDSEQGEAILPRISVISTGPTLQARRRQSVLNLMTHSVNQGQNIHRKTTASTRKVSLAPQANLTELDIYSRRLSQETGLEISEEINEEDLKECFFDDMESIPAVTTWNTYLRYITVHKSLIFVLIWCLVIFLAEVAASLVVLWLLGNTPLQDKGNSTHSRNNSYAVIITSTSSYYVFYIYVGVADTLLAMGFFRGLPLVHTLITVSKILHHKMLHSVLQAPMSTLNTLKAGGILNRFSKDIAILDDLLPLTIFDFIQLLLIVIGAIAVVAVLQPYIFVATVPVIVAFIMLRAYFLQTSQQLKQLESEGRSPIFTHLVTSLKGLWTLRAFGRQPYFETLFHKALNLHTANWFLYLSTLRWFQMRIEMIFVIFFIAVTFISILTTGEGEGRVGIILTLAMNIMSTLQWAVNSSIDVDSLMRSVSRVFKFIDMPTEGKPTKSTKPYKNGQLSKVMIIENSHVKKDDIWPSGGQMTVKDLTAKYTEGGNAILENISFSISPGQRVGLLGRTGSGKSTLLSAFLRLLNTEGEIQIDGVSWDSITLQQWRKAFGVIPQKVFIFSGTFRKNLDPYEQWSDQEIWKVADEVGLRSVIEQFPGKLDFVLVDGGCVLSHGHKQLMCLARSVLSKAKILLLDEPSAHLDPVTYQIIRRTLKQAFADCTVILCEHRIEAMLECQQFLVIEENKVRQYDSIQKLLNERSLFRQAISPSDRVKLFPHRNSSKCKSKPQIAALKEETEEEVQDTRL

Nonstructural protein 1 = Nonstructural protein 1 (Influenza A virus, UniProt Q194T2); format: functional, Influenza A virus (A/California/07/2009(H1N1))
Sequence of Nonstructural protein 1 (Q194T2 whole entry): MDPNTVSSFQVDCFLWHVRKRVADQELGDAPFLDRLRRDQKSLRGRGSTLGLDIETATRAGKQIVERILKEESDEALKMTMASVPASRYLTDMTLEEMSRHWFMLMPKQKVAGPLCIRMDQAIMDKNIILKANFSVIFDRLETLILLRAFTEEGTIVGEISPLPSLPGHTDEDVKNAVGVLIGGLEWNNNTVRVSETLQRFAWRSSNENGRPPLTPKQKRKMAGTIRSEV

[8] = biological target: Mitochondrial peptide methionine sulfoxide reductase (Bos taurus, UniProt P54149); assay: Absorbance-based biochemical high throughput dose response assay for activators of Methionine sulfoxide reductase A (MsrA).; format: functional
Sequence of Mitochondrial peptide methionine sulfoxide reductase (P54149 whole entry): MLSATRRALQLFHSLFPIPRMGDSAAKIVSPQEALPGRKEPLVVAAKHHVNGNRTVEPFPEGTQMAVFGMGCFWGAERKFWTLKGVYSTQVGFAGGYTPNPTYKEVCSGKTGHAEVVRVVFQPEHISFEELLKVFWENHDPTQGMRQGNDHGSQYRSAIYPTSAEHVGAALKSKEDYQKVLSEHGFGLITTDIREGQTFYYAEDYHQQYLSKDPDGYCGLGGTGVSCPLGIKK

[9] = viability loss in HeLa cells – cytotoxicity control for MgcRacGAP inhibitor project, dose response (AID 624300); format: functional
[10] = biological target: Glucose-6-phosphate 1-dehydrogenase (Homo sapiens, UniProt P11413); assay: inhibition of Homo sapiens G6PD, dose series – biochemical, fluorescence, selectivity assay for P. falciparum G6PD inhibitor project, dose response (AID 504792); format: functional
Sequence of Glucose-6-phosphate 1-dehydrogenase (P11413 whole entry): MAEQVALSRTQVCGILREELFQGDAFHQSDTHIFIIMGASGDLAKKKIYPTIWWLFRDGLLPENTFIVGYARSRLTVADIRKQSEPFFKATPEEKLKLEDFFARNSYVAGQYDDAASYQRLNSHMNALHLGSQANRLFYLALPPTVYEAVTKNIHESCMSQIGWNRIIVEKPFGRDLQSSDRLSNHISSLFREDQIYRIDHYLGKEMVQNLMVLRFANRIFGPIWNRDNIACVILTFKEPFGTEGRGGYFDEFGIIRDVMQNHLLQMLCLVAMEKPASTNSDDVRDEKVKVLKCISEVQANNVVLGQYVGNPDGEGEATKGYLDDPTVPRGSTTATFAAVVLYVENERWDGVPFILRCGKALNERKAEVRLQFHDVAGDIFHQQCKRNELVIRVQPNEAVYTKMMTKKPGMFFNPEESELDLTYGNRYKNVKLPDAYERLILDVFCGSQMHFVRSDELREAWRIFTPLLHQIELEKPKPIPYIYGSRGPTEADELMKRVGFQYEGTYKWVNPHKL

[11] = inhibition of ADAM10 peptide cleavage – biochemical, FRET peptide substrate, recombinant human ADAM10, selectivity assay for ADAM17 exosite inhibitor project, dose response (AID 743259);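 further: ADAM10 enzyme cleaving a FRET peptide substrate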
[12] = biological target: T4, Replicative DNA helicase DnaB (Mycobacterium tuberculosis, UniProt P9WMR3); assay: DnaB intein splicing inhibitors, dose response, biochemical, cell-free fluorescence (AID 449749); format: functional
T4 sequence (P9WMR3 whole entry): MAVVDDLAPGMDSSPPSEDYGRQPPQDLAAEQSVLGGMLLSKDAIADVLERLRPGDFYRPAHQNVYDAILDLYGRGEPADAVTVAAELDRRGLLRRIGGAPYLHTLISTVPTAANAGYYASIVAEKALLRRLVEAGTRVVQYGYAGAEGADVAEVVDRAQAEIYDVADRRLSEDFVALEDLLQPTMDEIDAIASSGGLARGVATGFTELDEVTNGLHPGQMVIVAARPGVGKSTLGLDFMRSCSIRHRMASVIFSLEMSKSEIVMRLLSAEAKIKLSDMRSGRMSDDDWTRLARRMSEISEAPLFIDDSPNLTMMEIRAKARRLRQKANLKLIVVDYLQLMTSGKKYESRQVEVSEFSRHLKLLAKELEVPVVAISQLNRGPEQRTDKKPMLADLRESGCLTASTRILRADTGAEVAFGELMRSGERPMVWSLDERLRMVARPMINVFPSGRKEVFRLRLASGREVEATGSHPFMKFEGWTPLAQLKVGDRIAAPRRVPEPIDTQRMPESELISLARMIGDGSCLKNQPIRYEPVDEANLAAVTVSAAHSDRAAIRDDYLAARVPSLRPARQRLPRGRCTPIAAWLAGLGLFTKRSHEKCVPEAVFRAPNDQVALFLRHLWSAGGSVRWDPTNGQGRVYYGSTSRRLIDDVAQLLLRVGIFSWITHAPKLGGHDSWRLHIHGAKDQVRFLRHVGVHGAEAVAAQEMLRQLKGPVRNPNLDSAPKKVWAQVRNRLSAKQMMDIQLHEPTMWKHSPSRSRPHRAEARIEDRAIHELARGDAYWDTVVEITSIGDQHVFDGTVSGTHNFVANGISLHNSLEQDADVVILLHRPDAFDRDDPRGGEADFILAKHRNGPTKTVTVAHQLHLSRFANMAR

[13] = Luminescence Cell-Based Dose Retest to Confirm Inhibitors of Cancer Stem Cells. [Related pubchem assays (depositor defined):AID2717, AID2721]; format: functional; conditions: Homo sapiens
CAAX prenyl protease 2 = biological target: T5, CAAX prenyl protease 2 (Saccharomyces cerevisiae S288c, UniProt Q03530); format: biochemical
T5 sequence (Q03530 whole entry): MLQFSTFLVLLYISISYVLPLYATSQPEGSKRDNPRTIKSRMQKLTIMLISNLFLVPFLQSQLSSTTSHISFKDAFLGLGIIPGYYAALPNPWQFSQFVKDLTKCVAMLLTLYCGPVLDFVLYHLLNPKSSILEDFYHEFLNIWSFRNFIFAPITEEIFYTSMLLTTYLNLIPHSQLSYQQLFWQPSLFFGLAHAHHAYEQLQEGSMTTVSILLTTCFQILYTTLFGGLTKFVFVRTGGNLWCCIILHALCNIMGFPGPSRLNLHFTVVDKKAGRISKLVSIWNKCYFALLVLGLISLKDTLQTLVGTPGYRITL

Protein RecA = biological target: T6, Protein RecA (Mycobacterium tuberculosis, UniProt P9WHJ3); assay: Fluorescence Cell-Free Homogeneous Dose Retest to Identify Inhibitors of RecA-Intein Splicing Activity. [Related pubchem assays (depositor defined):AID2097, AID2223, AID489010, AID492950]; format: functional
T6 sequence (P9WHJ3 whole entry): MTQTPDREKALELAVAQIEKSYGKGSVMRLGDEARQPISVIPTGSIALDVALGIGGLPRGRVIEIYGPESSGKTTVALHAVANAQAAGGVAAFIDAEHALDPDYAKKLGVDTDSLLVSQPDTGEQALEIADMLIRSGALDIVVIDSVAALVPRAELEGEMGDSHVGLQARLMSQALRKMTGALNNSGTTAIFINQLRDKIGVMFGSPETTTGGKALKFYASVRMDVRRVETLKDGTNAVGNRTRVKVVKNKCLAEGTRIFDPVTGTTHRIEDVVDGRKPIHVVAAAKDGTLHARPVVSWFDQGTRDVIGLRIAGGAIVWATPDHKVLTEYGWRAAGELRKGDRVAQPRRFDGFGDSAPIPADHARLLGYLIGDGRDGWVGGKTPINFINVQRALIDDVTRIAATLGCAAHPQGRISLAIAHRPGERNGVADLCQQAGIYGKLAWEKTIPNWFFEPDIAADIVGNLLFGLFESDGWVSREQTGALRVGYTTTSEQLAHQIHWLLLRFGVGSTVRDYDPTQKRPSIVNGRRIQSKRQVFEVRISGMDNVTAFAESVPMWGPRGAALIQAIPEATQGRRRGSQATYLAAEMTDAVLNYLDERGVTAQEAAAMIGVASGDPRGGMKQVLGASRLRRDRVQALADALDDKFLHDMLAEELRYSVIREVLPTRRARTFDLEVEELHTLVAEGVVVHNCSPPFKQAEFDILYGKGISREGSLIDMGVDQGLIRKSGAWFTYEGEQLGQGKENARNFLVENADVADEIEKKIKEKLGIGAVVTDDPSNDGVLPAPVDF

[14] = biological target: Disintegrin and metalloproteinase domain-containing protein 17 (Homo sapiens, UniProt P78536); assay: exosite inhibitors of ADAM17, dose response, biochemical (AID 743260)
Sequence of Disintegrin and metalloproteinase domain-containing protein 17 (P78536 whole entry, the tested form may be a part): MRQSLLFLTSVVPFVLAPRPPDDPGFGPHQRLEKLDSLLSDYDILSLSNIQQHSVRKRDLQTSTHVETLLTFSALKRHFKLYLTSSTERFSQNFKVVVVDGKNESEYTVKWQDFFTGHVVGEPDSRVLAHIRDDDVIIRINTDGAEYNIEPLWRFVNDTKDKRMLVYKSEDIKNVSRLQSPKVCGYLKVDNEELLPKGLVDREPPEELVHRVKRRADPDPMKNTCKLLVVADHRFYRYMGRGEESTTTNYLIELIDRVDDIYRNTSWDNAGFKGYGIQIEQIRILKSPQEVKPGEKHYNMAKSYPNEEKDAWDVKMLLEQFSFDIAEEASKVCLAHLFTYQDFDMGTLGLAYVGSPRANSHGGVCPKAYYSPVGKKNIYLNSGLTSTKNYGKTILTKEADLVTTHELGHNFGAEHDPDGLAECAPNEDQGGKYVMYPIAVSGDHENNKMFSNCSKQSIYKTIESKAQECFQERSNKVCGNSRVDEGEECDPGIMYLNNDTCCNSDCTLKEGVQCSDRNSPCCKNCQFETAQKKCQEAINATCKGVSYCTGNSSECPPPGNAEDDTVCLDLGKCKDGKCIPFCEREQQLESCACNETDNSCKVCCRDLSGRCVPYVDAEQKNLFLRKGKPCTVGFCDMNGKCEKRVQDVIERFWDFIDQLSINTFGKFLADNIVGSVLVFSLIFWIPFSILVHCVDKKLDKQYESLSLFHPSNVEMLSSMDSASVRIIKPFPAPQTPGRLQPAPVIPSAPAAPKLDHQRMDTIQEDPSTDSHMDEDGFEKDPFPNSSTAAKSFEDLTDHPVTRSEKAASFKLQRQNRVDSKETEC

Trypsin = Trypsin (Sus scrofa, UniProt P00761); assay: trypsin protease activity blockade – biochemical, quenched peptide fluorescence, cherry-pick, selectivity assay for Rce1 protease inhibitor project, dose response (AID 488789)
Sequence of Trypsin (P00761 whole entry): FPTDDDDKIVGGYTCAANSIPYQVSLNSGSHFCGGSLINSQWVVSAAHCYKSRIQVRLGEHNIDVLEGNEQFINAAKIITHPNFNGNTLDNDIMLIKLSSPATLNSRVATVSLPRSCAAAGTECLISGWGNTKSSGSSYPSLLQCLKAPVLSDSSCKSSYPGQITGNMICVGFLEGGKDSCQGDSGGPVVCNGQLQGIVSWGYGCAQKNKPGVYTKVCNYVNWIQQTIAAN

[15] = biological target: T7, Small ubiquitin-related modifier 1 (Homo sapiens, UniProt P63165); assay: SUMO1 protein interaction blockers, potency – biochemical, fluorescence polarization, uHTS hits, dose response (AID 624382); format: functional; conditions: read-out: IC50_Mean
T7 sequence (P63165 whole entry): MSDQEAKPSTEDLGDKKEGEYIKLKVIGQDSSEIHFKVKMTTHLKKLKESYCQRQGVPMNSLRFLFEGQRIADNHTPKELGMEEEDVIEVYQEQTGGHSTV

[16] = biological target: T7, Small ubiquitin-related modifier 1; assay: SUMO1 protein-protein binding blockers, potency – biochemical, FRET, dose response (AID 624383); format: functional; conditions: read-out: IC50_Mean
[17] = Luminescence Cell Based Dose Confirmation HTS to Identify Activators of 5'UTR Stem-Loop Driven Alpha-Synuclein mRNA Translation in H4 Neuroglioblastoma Cells. [Related pubchem assays (depositor defined):AID1813, AID1829]; format: functional; conditions: Homo sapiens
Vero [18] = assay: cells; format: functional; conditions: Chlorocebus sabaeus
Vero [19] = assay: cells; format: functional, cell-based; conditions: Chlorocebus sabaeus
[20] = protection from phage-mediated lysis, alamar blue read-out – E. coli UTI89, K1F phage, bacterial capsule biogenesis inhibitors (AID 488966); format: functional
[21] = biological target: G-protein coupled receptor 55 (Homo sapiens, UniProt Q9Y2T6); assay: selective activators of receptor GPR55 – imaging, U2OS cells, beta-arrestin-GFP redistribution, primary screen (AID 1961); format: functional
Sequence of G-protein coupled receptor 55 (Q9Y2T6 whole entry): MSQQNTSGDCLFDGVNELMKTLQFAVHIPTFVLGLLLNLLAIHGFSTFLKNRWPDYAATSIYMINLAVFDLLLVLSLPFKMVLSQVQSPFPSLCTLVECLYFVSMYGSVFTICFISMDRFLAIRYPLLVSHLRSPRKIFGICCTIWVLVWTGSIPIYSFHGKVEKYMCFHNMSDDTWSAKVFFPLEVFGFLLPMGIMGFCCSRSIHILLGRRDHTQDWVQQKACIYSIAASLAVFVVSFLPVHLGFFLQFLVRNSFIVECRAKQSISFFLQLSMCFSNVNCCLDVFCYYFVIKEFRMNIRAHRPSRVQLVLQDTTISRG

## CC[C@@](C)(C(=O)NC1CCCCC1)N(Cc1ccco1)C(=O)c1ccccn1
[1]
  IC50: > 32 µM (inactive)
[2]
  EC50: 0.128 µM (active)
[3]
  IC50: > 32 µM (inactive)

## Sc1n[nH]c(C2CCCCC2)n1
[4]
  IC50: 8.98 µM (active)
[5]
  IC50: > 100 µM (inactive)
Leucine aminopeptidase
  IC50: 13.8 µM (active)

## CN(C)c1ccc(C=c2c3cc(O)ccc3n3c2cc(-c2ccccc2)[n+]3C)cc1
[6]
  IC50: 20.1 µM (active)
[7]
  AC50: 44.6 µM (active)
Nonstructural protein 1
  IC50: 3.76 µM (active)
[8]
  EC50: > 104 µM (inactive)
[9]
  CC50: 50.7 µM (active)
[10]
  IC50: > 80 µM (inactive)

## N=c1c2c(ncn1Cc1ccco1)Oc1ccc3ccccc3c1C2c1ccccc1 (stereo unspecified)
[11]
  IC50: > 7.72 µM (active)
[12]
  AC50: 7.51 µM (active)
[13]
  AC50: 2.09 µM (active)
CAAX prenyl protease 2
  AC50: 27.2 µM (active)
Protein RecA
  EC50: 16.7 µM (active)
[14]
  IC50: > 69.5 µM (inactive)
Trypsin
  AC50: 7.73 µM (active)

## Fc1ccc(Nc2nnc(-c3ccncc3)s2)cc1Cl
[15]
  IC50: > 66.6 µM (inactive)
[16]
  IC50: 100 µM (inactive)
[17]
  EC50: 12 µM (active)

## NCC1CCN(c2nc3ccccc3c3c2CCCC3)CC1
Vero [18]
  CC50: 19.2 µM (active)
Vero [19]
  IC50: > 25 µM (active)
[20]
  IC50: > 150 µM (active)

## CCN(CC)c1ccc(/C=N/OCC(=O)Nc2cccc(C)c2)cc1
[21]
  EC50: > 32 µM (inactive)
